Common to all, as to assay: calcium imaging (Calcium-4), HEK […]
Common to all, as to format: cell-based

In test [1] the target is T1, human TAS2R16 (Homo sapiens, UniProt Q9NYV7, I247M).
T1 construct: full-length; N-terminal 45 residues of rat SSTR3 and C-terminal 8 residues of bovine rhodopsin as tags; pEAK10, HEK 293T with G16gust44
T1 sequence (Q9NYV7 1-291 I247M): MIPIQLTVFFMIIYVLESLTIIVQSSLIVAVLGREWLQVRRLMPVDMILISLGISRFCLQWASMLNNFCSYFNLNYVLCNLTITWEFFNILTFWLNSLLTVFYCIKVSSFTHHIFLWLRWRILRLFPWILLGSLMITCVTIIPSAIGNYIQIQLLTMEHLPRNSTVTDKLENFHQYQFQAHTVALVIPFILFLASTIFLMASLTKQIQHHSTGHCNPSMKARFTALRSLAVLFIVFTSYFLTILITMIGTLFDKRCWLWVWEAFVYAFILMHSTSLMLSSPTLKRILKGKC

Test [2] deals with T2, human TAS2R16 (Homo sapiens, UniProt Q9NYV7, L125W).
T2 construct: full-length; N-terminal 45 residues of rat SSTR3 and C-terminal 8 residues of bovine rhodopsin as tags; pEAK10, HEK 293T with G16gust44
T2 sequence (Q9NYV7 1-291 L125W): T1 sequence (Q9NYV7 1-291 I247M) with L125W, M247I

For test [3], the target named is T3, human TAS2R16 (Homo sapiens, UniProt Q9NYV7, S133C).
T3 construct: full-length; N-terminal 45 residues of rat SSTR3 and C-terminal 8 residues of bovine rhodopsin as tags; pEAK10, HEK 293T with G16gust44
T3 sequence (Q9NYV7 1-291 S133C): T1 sequence (Q9NYV7 1-291 I247M) with S133C, M247I

Test [4] addresses T4, human TAS2R16 (Homo sapiens, UniProt Q9NYV7, E86T/I247M/V260F).
T4 construct: full-length; N-terminal 45 residues of rat SSTR3 and C-terminal 8 residues of bovine rhodopsin as tags; pEAK10, HEK 293T with G16gust44
T4 sequence (Q9NYV7 1-291 E86T/I247M/V260F): T1 sequence (Q9NYV7 1-291 I247M) with E86T, V260F

Test [5] concerns the target T5, human TAS2R16 (Homo sapiens, UniProt Q9NYV7).
T5 construct: full-length; N-terminal 45 residues of rat SSTR3 and C-terminal 8 residues of bovine rhodopsin as tags; pEAK10, HEK 293T with G16gust44
T5 sequence (Q9NYV7 1-291): T1 sequence (Q9NYV7 1-291 I247M) with M247I
Particulars: G16gust44 co-expressed; agonist.

The target of test [6] is T6, human TAS2R16 (Homo sapiens, UniProt Q9NYV7, E86T/V260F).
T6 construct: full-length; N-terminal 45 residues of rat SSTR3 and C-terminal 8 residues of bovine rhodopsin as tags; pEAK10, HEK 293T with G16gust44
T6 sequence (Q9NYV7 1-291 E86T/V260F): T1 sequence (Q9NYV7 1-291 I247M) with E86T, M247I, V260F

Test [7] addresses T7, human TAS2R16 (Homo sapiens, UniProt Q9NYV7, V260F).
T7 construct: full-length; N-terminal 45 residues of rat SSTR3 and C-terminal 8 residues of bovine rhodopsin as tags; pEAK10, HEK 293T with G16gust44
T7 sequence (Q9NYV7 1-291 V260F): T1 sequence (Q9NYV7 1-291 I247M) with M247I, V260F

Test [8] concerns the target T8, human TAS2R16 (Homo sapiens, UniProt Q9NYV7, E86T/I247M).
T8 construct: full-length; N-terminal 45 residues of rat SSTR3 and C-terminal 8 residues of bovine rhodopsin as tags; pEAK10, HEK 293T with G16gust44
T8 sequence (Q9NYV7 1-291 E86T/I247M): T1 sequence (Q9NYV7 1-291 I247M) with E86T

In test [9] the target is T5, human TAS2R16.

Where a chain is given by its changes, count along the chain named. Where two headings read alike, the source gives them in different places.

In general, EC50 refers to the concentration at which the effect is half-maximal. On to `OCc1ccccc1O[C@@H]1O[C@H](CO)[C@@H](O)[C@H](O)[C@H]1O` [salicin], for which the EC50 was 1400 ± 90 µM in test [1]; 200 ± 50 µM in [2]; 74 ± 6 µM in test [3]; 5090 ± 1100 µM in [4]; “plotted with wild-type human and macaque TAS2R16s” in [5]; 3650 ± 1000 µM in test [6]. Further, the EC50 in test [7] came to 1280 ± 180 µM; in test [8] it was 3540 ± 550 µM.
Take `N#C[C@H](O[C@@H]1O[C@H](CO[C@@H]2O[C@H](CO)[C@@H](O)[C@H](O)[C@H]2O)[C@@H](O)[C@H](O)[C@H]1O)c1ccccc1` [amygdalin]: in test [9], the EC50 was found to be 760 ± 400 µM.
